# Data published in ChEMBL document CHEMBL1201862, “PubChem BioAssay data set” (2004).
# Calls of active or inactive are those of the source.
# Experiments:
# [1] = viability loss in THP-1 monocytes – THP-1 cells, cytotoxicity control for Vif-APOBEC3G degradation inhibitor project, dose response (AID 1117359); format: functional; settings: THP-1
# [2] = toxicity toward immortalized ovarian surface epithelium – cell-based, plate reader, dry powder samples, cytotoxicity control for PAX8 inhibitor project, dose response (AID 743045); format: functional
# [3] = IGROV1 cell killing – plate reader, dry powder samples, PAX8 inhibitor project, dose response (AID 743043); format: functional, cell-based; settings: IGROV-1
# [4] = OVCAR8 cell viability loss – plate reader, dry powder samples, PAX8 project, dose response (AID 743197); format: functional, cell-based; settings: OVCAR-8
# [5] = general cell-killing toxicity readout – plate reader, dry powder samples, cytotoxicity control for PAX8 inhibitor project, dose response (AID 743021); format: functional, cell-based
# [6] = target: Paired box protein Pax-8 (Homo sapiens, UniProt Q06710); experiment: PAX8 transcriptional activity inhibition in RMG-I – RMG-I cells, luciferase, cherry-pick, dose response (AID 687027); format: functional, cell-based;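 note: luciferase reporter driven by Pax8 target thyroperoxidase promoter measured by SteadyGlo luminescence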
# Paired box protein Pax-8, sequence (Q06710 whole entry): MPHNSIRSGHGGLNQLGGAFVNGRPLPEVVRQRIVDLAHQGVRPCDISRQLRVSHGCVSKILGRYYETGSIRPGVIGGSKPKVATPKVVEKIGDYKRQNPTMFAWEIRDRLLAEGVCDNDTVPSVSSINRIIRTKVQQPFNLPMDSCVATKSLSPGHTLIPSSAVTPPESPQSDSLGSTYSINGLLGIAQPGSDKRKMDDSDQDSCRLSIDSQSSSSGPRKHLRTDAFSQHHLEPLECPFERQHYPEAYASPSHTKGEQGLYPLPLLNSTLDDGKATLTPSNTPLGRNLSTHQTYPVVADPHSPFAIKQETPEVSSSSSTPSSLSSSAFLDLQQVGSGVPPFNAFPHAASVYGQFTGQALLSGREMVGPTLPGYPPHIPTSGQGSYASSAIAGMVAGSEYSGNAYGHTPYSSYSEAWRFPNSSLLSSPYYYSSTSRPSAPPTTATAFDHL
# [7] = OVCAR-3 cell viability loss – plate reader, dry powder samples, PAX8 inhibitor project, dose response (AID 743044); format: functional, cell-based
# [8] = A2780 cell killing – plate reader, dry powder samples, cytotoxicity control, dose response (AID 743046); format: functional, cell-based
# [9] = growth inhibition of PfATP4-mutant resistant parasites – NITD609-resistant line, SYBR Green, dry powder, dose response (AID 1159571); format: functional, cell-based;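 note: parasites synchronized at ring stage by sorbitol before testing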
# [10] = Dd2 malaria parasite growth inhibition potency – SYBR Green, dry powder samples, dose response (AID 1159566); format: functional, cell-based;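 note: potency for growth inhibition with lower SYBR green DNA signal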
# [11] = growth inhibition of yeast DHODH-expressing 3D7 parasites – SYBR Green, dry powder samples, dose response (AID 1159570); format: functional, cell-based;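 note: parasite growth measured after 72 hours of compound exposure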
# [12] = Plasmodium falciparum Dd2 Sybr green parasite growth Measured in Cell-Based and Microorganism Combination System Using Plate Reader - 2153-01_Inhibitor_Dose_DryPowder_Activity_Set3.; format: functional
# [13] = Dd2 parasite growth inhibition in erythrocytes – SYBR Green, dry powder samples, set 9, dose response (AID 1159568); format: functional, cell-based
# [14] = P. falciparum Dd2 growth inhibitors, dose response, SYBR Green, cherry-picked samples (AID 1159567); format: functional, cell-based
# [15] = cytotoxicity in MITF-independent A375 cells – cell-based, CellTiter-Glo luminescence, dry powder, set 4, counter-screen for MITF inhibitor project, dose response (AID 624364); format: functional; settings: A-375;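 note: A375 melanoma cells are MITF independent so this is a counter screen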
# [16] = viability loss in MITF-independent A375 cells – cell-based, CellTiter-Glo luminescence, dry powder, set 2, counter-screen for MITF inhibitor project, dose response (AID 624489); format: functional; settings: A-375;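 note: actives are compounds lowering A375 viability meaning general cytotoxicity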
# [17] = target: Metabotropic glutamate receptor 5 (Rattus norvegicus, UniProt P31424); experiment: Identification of a glycine sulfonamide based non-MPEP site positive allosteric potentiator (PAM) of mGlu5 (calcium_assay).; format: functional
# Metabotropic glutamate receptor 5, sequence (P31424 whole entry): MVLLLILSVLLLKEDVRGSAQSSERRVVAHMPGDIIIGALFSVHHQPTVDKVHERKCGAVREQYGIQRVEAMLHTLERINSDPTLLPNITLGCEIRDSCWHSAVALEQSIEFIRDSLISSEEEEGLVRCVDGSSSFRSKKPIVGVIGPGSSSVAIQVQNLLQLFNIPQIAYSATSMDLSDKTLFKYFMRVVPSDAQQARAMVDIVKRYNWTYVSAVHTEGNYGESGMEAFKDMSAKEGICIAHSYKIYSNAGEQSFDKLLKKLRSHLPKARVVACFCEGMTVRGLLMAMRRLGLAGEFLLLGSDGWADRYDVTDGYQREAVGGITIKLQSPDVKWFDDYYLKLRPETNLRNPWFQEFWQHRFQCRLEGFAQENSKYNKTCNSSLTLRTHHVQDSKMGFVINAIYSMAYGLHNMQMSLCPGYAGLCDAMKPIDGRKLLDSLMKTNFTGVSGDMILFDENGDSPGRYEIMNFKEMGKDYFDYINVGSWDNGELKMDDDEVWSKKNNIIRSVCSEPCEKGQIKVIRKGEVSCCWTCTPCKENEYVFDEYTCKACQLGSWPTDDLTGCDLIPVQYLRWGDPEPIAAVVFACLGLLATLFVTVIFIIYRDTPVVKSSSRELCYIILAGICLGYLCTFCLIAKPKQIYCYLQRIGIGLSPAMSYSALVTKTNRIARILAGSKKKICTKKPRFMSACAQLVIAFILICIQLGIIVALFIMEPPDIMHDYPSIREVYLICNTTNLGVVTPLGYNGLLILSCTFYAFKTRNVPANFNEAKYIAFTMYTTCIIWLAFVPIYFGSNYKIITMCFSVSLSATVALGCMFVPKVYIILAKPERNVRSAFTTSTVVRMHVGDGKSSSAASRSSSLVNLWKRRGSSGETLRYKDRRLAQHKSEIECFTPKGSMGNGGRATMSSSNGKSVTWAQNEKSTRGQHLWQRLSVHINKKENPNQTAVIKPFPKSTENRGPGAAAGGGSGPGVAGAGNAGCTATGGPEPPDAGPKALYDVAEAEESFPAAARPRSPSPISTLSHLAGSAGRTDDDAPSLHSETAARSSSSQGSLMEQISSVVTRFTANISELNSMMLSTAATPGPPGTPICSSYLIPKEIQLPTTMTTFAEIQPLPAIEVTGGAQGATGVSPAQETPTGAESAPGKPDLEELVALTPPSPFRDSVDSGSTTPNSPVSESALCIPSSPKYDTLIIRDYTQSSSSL
# [18] = target: Mitogen-activated protein kinase 10 (Homo sapiens, UniProt P53779); experiment: Dose response biochemical screening assay for inhibitors of c-Jun N-Terminal Kinase 3 (JNK3). [Related pubchem assays: 746 ]
# Mitogen-activated protein kinase 10, sequence (P53779 whole entry): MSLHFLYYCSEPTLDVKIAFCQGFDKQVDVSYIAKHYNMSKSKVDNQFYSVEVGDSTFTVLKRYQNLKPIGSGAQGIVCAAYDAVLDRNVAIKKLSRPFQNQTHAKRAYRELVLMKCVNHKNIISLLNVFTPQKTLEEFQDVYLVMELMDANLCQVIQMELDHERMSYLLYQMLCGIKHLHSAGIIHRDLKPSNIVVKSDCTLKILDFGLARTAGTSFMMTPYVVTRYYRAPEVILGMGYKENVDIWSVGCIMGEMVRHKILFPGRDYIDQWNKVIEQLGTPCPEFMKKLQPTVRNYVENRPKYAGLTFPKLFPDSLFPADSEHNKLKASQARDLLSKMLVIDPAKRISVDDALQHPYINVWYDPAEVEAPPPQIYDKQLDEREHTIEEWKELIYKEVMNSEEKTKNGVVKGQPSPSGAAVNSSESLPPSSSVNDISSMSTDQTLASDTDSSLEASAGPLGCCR
# [19] = toxicity to human hepatoma HepG2 cells – cell-based, cherry-picked samples, cytotoxicity control, dose response (AID 1159577); format: functional
# [20] = toxicity to human HepG2 hepatoma cells – cell-based, plate reader, dry powder samples, cytotoxicity control, dose response (AID 1159569); format: functional;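 note: inhibitor potency with signal falling toward the positive control level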
smiles,measurement,setting,value
CC12CCC(C(=O)Nc3cc(F)ccc3F)(CC1=O)C2(C)C (stereo unspecified),CC50,[1],> 40 µM (active)
COc1ccc(NC(=O)N2C[C@@H]3N[C@H](C2)[C@@H]3c2ccc(-c3ccc(OC)cc3)cc2)cc1,AC50,[2],23.3 µM (active)
same,AC50,[3],26.6 µM (active)
same,AC50,[4],48.5 µM (active)
same,AC50,[5],32.5 µM (active)
same,AC50,[6],13.7 µM (active)
same,AC50,[7],46.6 µM (active)
C[C@@H]1CN([C@@H](C)CO)C(=O)c2cc(NC(=O)Nc3ccc(F)cc3)ccc2O[C@@H](C)CCCCO[C@@H]1CN(C)Cc1ccc(C(F)(F)F)cc1,AC50,[4],39.9 µM (active)
same,AC50,[8],0.363 µM (active)
same,AC50,[6],9.46 µM (active)
same,AC50,[7],33.6 µM (active)
CCCNC(=O)N1[C@H](C#N)[C@H](c2ccc(C#Cc3cccc(F)c3)cc2)[C@H]1CO,AC50,[9],0.00678 µM (active)
same,AC50,[10],0.00355 µM (active)
same,AC50,[11],8.92 µM (active)
same,AC50,[12],0.0243 µM (active)
same,AC50,[13],0.00951 µM (active)
same,AC50,[14],< 0.3 µM (active)
O=C(NC1=C(c2ccc(OC(F)(F)F)cc2)C(=O)c2ccccc2C1=O)c1ccc(Br)cc1,AC50,[15],41.1 µM (active)
same,AC50,[16],36.5 µM (active)
CS(=O)(=O)N(CC(=O)NC1CCCCC1)c1cc(C(F)(F)F)ccc1Cl,EC50,[17],10 µM (inconclusive)
CC(C(=O)Nc1ccc(Cl)cn1)N(c1ccccc1Cl)S(C)(=O)=O (stereo unspecified),EC50,[17],> 30 µM (inactive)
O=C(c1cccc2c1-c1ccccc1/C2=N/O)N1CCCCC1,IC50,[18],40.7 µM (not active)
COc1ccc(-c2ccc([C@H]3[C@@H](C#N)N(C(=O)NC4CCCC4)[C@@H]3CO)cc2)cc1,AC50,[9],0.248 µM (active)
same,AC50,[10],0.23 µM (active)
same,AC50,[11],5.29 µM (active)
same,AC50,[12],0.208 µM (active)
same,AC50,[14],< 0.3 µM (active)
same,AC50,[19],> 39 µM (inactive)
same,AC50,[20],81.4 µM (active)
CC(=O)NC1=C(c2cccc(Cl)c2)C(=O)c2ccccc2C1=O,AC50,[15],14.4 µM (active)
same,AC50,[16],7.22 µM (active)
